In patent publication US12195466B2, “Polyproline mimetics of proline-derived module-15” (Forschungsverbund Berlin e.V., priority 2018, dated 2025):

Legend:
[1] = biological target: T1, EnaH-EVH1 domain (Homo sapiens (Human), UniProt Q8N8S7); assay: Binding affinity to the EnaH-EVH1 domain by fluorescence titration (FT); conditions: for Kd / FT ΔG^0 (free energy): EnaH-EVH1 domain
Experimental: (§1) The binding data of the ligands to the domain was determined by means of isothermal titration calorimetry (ITC) or fluorescence titration (FT) and presented in the form of the dissociation constant (Kd) or the free energy (AGO). A stronger binding of the ligand to the domain is expressed by a smaller Kd value or a correspondingly more negative AGO value. The relationship between the two parameters is shown in equation (a): […]

[2] = system: highly metastatic colorectal and breast cancer cells; conditions: cited from earlier work
[3] = Cell permeability; format: in vitro ADME; conditions: comparison among derivatives 44, 242 and 113
[4] = biological target: VASP (Homo sapiens (Human), UniProt P50552); conditions: cited from earlier work
[5] = esterification of the free acid 43; cited from earlier work
[6] = Metabolic stability; format: in vitro ADME; conditions: comparison among derivatives 44, 242 and 113
[7] = biological target: T1, EnaH-EVH1 domain; assay: Binding affinity to the EnaH-EVH1 domain by isothermal titration calorimetry (ITC); conditions: standard errors in brackets
Experimental: as §1

[8] = system: Ena/VASP-EVH1 domain; conditions: cited from earlier work
[9] = biological target: Ena-EVH1 (Homo sapiens (Human), UniProt Q8N8S7); conditions: cited from earlier work
[10] = biological target: VASP-EVH1 (Homo sapiens (Human), UniProt P50552); conditions: cited from earlier work
[11] = biological target: EVL-EVH1 (Homo sapiens (Human), UniProt Q9UI08); conditions: cited from earlier work
[12] = fluorescence titration, Table 3, read-out: KD

T1 sequence (Q8N8S7 1-111): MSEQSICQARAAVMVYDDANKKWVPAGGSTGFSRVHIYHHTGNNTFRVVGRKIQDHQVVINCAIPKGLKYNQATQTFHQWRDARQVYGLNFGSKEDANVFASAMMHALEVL
EVL-EVH1, sequence (Q9UI08 1-112): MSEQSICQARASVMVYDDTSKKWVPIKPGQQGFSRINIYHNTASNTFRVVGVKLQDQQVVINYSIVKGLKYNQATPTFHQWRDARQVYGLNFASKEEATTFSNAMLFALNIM
VASP, sequence (P50552 whole entry, species assumed): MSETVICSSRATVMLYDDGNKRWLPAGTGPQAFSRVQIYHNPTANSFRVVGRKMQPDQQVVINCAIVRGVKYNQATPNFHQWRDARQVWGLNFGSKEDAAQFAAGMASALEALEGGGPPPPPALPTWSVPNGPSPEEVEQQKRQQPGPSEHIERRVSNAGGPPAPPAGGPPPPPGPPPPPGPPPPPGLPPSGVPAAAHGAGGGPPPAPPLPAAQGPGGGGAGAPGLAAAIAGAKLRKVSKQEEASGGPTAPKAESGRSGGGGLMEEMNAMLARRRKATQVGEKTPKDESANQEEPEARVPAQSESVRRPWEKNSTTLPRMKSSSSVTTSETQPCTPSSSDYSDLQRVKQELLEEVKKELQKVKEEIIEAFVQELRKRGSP
Ena-EVH1, sequence (Q8N8S7 1-111): as the sequence (Q8N8S7 1-111) above
VASP-EVH1, sequence (P50552 2-113): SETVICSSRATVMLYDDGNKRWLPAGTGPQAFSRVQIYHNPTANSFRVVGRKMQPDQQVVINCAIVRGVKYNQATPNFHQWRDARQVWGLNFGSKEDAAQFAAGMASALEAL

For CC[C@@H]1C=C[C@H]2CCN(C(=O)[C@@H]3CC[C@@H]4C=C[C@H]5CCN(C(=O)[C@H](Cc6ccccc6Cl)NC(C)=O)[C@@H]5C(=O)N43)[C@@H]2C(=O)N1CC(=O)OC [Ac-[2Cl-Phe]-[ProM-1]-[ProM-15]-OMe], the Kd [1, 12] was 900 nM.
Compound COC(=O)CN1C(=O)[C@@H]2[C@@H](C=C[C@H]1CC(C)C)CCN2C(=O)[C@@H]1CC[C@@H]2C=C[C@H]3CCN(C(=O)[C@H](Cc4ccccc4Cl)NC(C)=O)[C@@H]3C(=O)N21 [Ac-[2Cl-Phe]-[ProM-1]-[ProM-17]-OMe] has a Kd [1, 12] of 2200 nM.
Compound CCC[C@@H]1C=C[C@H]2CCN(C(=O)[C@@H]3CC[C@@H]4C=C[C@H]5CCN(C(=O)[C@H](Cc6ccccc6Cl)NC(C)=O)[C@@H]5C(=O)N43)[C@@H]2C(=O)N1CC(=O)OC [Ac-[2Cl-Phe]-[ProM-1]-[ProM-21]-OMe] has a Kd [1, 12] of 2100 nM.
Compound COC(=O)CN1C(=O)[C@@H]2[C@@H](C=C[C@H]1CC(C)C)CCN2C(=O)[C@@H]1CC[C@H]2C=C[C@]3(CCCN3C(=O)[C@H](Cc3ccccc3Cl)NC(C)=O)C(=O)N21 [Ac-[2Cl-Phe]-[ProM-2]-[ProM-17]-OMe] has a Kd [1, 12] of 540 nM.
Work on CCC[C@@H]1C=C[C@H]2CCN(C(=O)[C@@H]3CC[C@H]4C=C[C@]5(CCCN5C(=O)[C@H](Cc5ccccc5Cl)NC(C)=O)C(=O)N43)[C@@H]2C(=O)N1CC(=O)OC [Ac-[2Cl-Phe]-[ProM-2]-[ProM-21]-OMe] yielded a Kd [1, 12] of 260 nM.
In the case of CCOC(=O)[C@@H]1CC[C@@H]2C=C[C@H]3CCN(C(=O)[C@@H]4CC[C@H]5C=C[C@]6(CCCN6C(=O)[C@H](Cc6ccccc6Cl)NC(C)=O)C(=O)N54)[C@@H]3C(=O)N21 [Ligand 44, Ac-[L-2Cl—F]-[ProM-2]-[ProM-1]-OEt, reference compound], the “motility of cancer cells” value [2] is listed as “drastically reduces the motility”, the cell permeabilities [3] is listed as “almost identical” and the “delocalization of VASP from focal adhesions and leading edge” value [4] is listed as “delocalizes the protein VASP from focal adhesions”. The cell permeability [5] was “cell-permeable”, the “FT ΔG^0 (free energy)” value ([1]; standard errors in brackets) was −30.8 (0.2) kJ/mol and the metabolic stabilities [6] was “almost identical”.
In the case of CC(=O)N[C@@H](Cc1ccccc1Cl)C(=O)N1CCC[C@]12C=C[C@@H]1CC[C@@H](C(=O)N3CC[C@@H]4C=C[C@H]5CC[C@@H](C(N)=O)N5C(=O)[C@H]43)N1C2=O [Ligand 113, Ac-[L-2Cl—F]-[ProM-2]-[ProM-1]-NH2], the cell permeabilities [3] is reported as “almost identical”, the Kd [7] is reported as 7 µM and the metabolic stabilities [6] is reported as “almost identical”.
For COC(=O)[C@@H]1CC[C@@H]2C=C[C@H]3CCN(C(=O)[C@@H]4CC[C@H]5C=C[C@]6(CCCN6C(=O)[C@H](Cc6ccccc6Cl)NC(C)=O)C(=O)N54)[C@@H]3C(=O)N21 [Ligand 242, Ac-[L-2Cl—F]-[ProM-2]-[ProM-1]-OMe], the cell permeabilities [3] was “almost identical”, the “FT ΔG^0 (free energy)” value ([1]; standard errors in brackets) was −30.6 (0.4) kJ/mol and the metabolic stabilities [6] was “almost identical”.
With CC[C@@H]1C=C[C@H]2CCN(C(=O)[C@@H]3CC[C@H]4C=C[C@]5(CCCN5C(=O)[C@H](Cc5ccccc5Cl)NC(C)=O)C(=O)N43)[C@@H]2C(=O)N1CC(=O)OC [Ligand 247, Ac-[L-2Cl—F]-[ProM-2]-[R,S,R-Gly-ProM-15]-OMe] the Kd [1, 12] was 470 nM, the “FT ΔG^0 (free energy)” value ([1]; standard errors in brackets) was −36.1 (0.1) kJ/mol and the Kd ([1]; standard errors in brackets, read-out: FT Kd) was 470 nM. For the same compound, the “gain in affinity by a factor” value ([1]; compared with the ProM-1-based predecessor ligands 44 and 242) was 9-10.
With CCOC(=O)[C@@H]1C[C@@H](C)[C@@H]2C=C[C@H]3CCN(C(=O)[C@@H]4CC[C@H]5C=C[C@]6(CCCN6C(=O)[C@H](Cc6ccccc6Cl)NC(C)=O)C(=O)N54)[C@@H]3C(=O)N12 [Ligand 251, Ac-[L-2Cl—F]-[ProM-2]-[ProM-9]-OEt, reference compound] the “FT ΔG^0 (free energy)” value ([1]; standard errors in brackets) was −36.6 (0.3) kJ/mol.
For Ac-SFEFPPPPTEDEL-NH2 [Ligand 40], the “binding to the Ena/VASP-EVH1 domain (range in words)” value [8] is listed as “micromolar range”.
In the case of “Ac-[L-2CI-F]-[ProM-2]-[ProM-1]-OH [Ligand 43]”, the “increased binding affinity compared to the natural peptide 42” value (shortened to “increased binding affinity”) [9] is listed as 180 fold, the “increased binding affinity” value [10] is listed as 280 fold and the “increased binding affinity” value [11] is listed as 180 fold.
